Source: ChEMBL document CHEMBL1201862, “PubChem BioAssay data set” (2004)
Active and inactive are the calls of the source.

Columns and labels:
[1] = C. albicans growth with fluconazole, confirmation, fluorescence, retest (AID 2467); assay type: functional, cell-based
[2] = biological target: T1, Short transient receptor potential channel 4 (Mus musculus, UniProt Q9QUQ5); test: mouse TRPC4 channel activators, dose response, cell-based, HEK293 TRPC4/mu-opioid, Fluo-4 calcium (AID 434937); assay type: functional
T1 sequence (Q9QUQ5 whole entry): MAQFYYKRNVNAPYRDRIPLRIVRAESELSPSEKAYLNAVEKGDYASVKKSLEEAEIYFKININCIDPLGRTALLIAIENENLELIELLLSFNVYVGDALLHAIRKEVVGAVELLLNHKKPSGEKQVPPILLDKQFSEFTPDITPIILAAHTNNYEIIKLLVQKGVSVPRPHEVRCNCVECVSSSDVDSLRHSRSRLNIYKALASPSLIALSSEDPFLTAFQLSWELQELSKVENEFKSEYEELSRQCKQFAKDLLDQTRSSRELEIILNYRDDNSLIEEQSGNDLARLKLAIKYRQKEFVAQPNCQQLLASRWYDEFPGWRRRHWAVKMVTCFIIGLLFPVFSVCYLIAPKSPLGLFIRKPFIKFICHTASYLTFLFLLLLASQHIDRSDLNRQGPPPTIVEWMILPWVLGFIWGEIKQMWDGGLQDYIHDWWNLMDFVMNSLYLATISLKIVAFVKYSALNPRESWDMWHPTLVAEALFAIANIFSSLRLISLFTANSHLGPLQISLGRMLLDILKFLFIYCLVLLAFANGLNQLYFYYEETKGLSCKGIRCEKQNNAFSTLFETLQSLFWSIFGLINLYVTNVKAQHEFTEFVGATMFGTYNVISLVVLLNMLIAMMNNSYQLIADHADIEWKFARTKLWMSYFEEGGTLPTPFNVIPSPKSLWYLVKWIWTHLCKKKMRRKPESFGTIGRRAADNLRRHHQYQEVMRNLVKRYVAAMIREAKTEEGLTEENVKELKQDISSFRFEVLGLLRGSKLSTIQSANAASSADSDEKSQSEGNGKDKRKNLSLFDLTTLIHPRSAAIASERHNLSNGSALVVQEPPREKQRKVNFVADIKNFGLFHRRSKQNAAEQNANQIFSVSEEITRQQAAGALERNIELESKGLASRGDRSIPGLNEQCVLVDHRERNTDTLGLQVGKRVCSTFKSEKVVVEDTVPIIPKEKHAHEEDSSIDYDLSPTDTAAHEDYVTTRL

[3] = NIH-3T3 fibroblast cytotoxicity, dose response, cytotoxicity control, cell-based, fluorescence, Alamar Blue, secondary assay (AID 2327); assay type: functional;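 further: NIH-3T3 mouse fibroblasts cultured with fluconazole at 8 µg/mL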
[4] = cytotoxicity toward DRD oncogenic fibroblasts, dose response, cell-based, non-viral oncogenic, luminescence (AID 1934); assay type: functional; conditions: Homo sapiens
[5] = biological target: T2, Microphthalmia-associated transcription factor (Homo sapiens, UniProt O75030); test: TRPM1 promoter luciferase signal decrease, dose response, MITF inhibitor project, cell-based, SK-MEL-5, cherry-picked, set 3 (AID 493073); assay type: functional
T2 sequence (O75030 whole entry): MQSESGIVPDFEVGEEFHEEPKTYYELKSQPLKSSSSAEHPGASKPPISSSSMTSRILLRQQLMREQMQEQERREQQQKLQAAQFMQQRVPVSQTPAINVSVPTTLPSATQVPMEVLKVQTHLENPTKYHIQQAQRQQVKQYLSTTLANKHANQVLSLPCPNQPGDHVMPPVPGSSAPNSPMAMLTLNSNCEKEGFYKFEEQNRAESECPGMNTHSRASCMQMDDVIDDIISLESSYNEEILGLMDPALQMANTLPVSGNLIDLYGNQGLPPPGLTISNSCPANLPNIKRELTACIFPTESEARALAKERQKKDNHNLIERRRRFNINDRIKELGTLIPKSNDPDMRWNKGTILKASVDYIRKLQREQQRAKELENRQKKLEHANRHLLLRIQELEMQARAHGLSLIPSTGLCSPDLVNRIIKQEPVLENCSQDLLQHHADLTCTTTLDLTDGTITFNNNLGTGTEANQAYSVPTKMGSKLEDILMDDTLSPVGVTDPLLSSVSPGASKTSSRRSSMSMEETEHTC

BJ [6] = test: cytotoxicity toward BJ-TERT fibroblasts, dose response, cell-based, RAS-independent, luminescence (AID 1933); assay type: functional; conditions: Homo sapiens
HEK293 [7] = test: cells; conditions: Homo sapiens
[8] = biological target: T3, Heat shock factor protein 1 (Mus musculus, UniProt P38532); test: HSF1 potentiators in luciferase reporter cells, confirmation, cell-based, NIH3T3, luminescence, dose retest (AID 435004); assay type: functional;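 further: stress induced by proteasome inhibitor MG132 added 30 min after compound; luciferase reporter driven by HSF1 response element in NIH3T3 cells; actives raise luminescence as potentiators of the MG132 stress response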
T3 sequence (P38532 whole entry): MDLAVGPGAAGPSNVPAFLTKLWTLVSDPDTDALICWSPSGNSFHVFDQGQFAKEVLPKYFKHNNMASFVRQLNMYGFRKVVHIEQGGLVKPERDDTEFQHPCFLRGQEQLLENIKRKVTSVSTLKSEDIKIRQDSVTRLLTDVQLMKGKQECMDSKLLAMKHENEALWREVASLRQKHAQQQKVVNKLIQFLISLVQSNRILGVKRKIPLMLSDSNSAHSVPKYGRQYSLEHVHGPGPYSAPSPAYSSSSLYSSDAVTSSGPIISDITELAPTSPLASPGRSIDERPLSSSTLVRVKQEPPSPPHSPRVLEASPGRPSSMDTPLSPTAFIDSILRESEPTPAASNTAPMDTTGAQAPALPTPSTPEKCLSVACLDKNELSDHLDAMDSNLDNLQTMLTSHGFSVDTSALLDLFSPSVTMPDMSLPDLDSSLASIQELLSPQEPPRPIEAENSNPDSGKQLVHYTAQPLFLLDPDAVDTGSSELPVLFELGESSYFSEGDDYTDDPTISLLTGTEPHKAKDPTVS

BJ [9] = test: cells; assay type: functional, cell-based; conditions: Homo sapiens
BJ [10] = test: cytotoxicity toward BJ-TERT-LT-ST fibroblasts, dose response, cell-based, RAS-independent, luminescence (AID 1935); assay type: functional; conditions: Homo sapiens;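 further: BJ fibroblasts immortalized with TERT plus LT and ST oncogenes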
HEK293 [11] = test: cells; conditions: Homo sapiens; remark: listed apart in the source
Cytochrome P450 2D6 [12] = biological target: T4, Cytochrome P450 2D6 (Homo sapiens, UniProt P10635);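 further: CYP2D6 member of a cytochrome P450 panel assay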
[13] = biological target: T5, Kappa-type opioid receptor (Homo sapiens, UniProt P41145); assay type: functional
Cytochrome P450 2D6 [14] = biological target: T4, Cytochrome P450 2D6; remark: listed apart in the source
Beta-galactosidase = Beta-galactosidase (Escherichia coli, UniProt Q8VNN2); assay type: functional
[15] = biological target: T6, Delta-type opioid receptor (Homo sapiens, UniProt P41143); test: HTS Image-Based Screen for Antagonists of the DOR Receptor. [Related pubchem assays (depositor defined):AID1777, AID1785, AID1786, AID2133]; assay type: functional
[16] = biological target: T5, Kappa-type opioid receptor; assay type: functional; remark: listed apart in the source
[17] = biological target: T6, Delta-type opioid receptor; test: HTS Image-Based Screen for Agonists of the DOR Receptor. [Related pubchem assays (depositor defined):AID1777, AID1786, AID2133]; assay type: functional
Mu-type opioid receptor = Mu-type opioid receptor (Homo sapiens, UniProt P35372); test: HTS Image-Based Screen for Agonists of the MOR Receptor. [Related pubchem assays (depositor defined):AID1777, AID1785, AID1786, AID2133]; assay type: functional;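 further: imaging of beta-arrestin GFP recruitment into spots after receptor activation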
[18] = biological target: T7, E3 ubiquitin-protein ligase XIAP (Homo sapiens, UniProt P98170); test: XIAP antagonists, biochemical, IAP family, fluorescence polarization (AID 1018); assay type: functional
[19] = biological target: T7, E3 ubiquitin-protein ligase XIAP; test: Counter Screen using XIAP-Bir3 for Chemical Antagonists of Bir1/2 domains of IAP-family anti-apoptotic proteins. [Related pubchem assays (depositor defined):AID1018, AID1449, AID1514, AID1638, AID1749, AID1750, AID488957, AID488963]
[20] = biological target: T8, Calpain-2 catalytic subunit (Sus scrofa, UniProt P43367); test: pig calpain II inhibitor potency, dose response, biochemical, fluorogenic peptide substrate (AID 1420); assay type: functional
T8 sequence (P43367 whole entry): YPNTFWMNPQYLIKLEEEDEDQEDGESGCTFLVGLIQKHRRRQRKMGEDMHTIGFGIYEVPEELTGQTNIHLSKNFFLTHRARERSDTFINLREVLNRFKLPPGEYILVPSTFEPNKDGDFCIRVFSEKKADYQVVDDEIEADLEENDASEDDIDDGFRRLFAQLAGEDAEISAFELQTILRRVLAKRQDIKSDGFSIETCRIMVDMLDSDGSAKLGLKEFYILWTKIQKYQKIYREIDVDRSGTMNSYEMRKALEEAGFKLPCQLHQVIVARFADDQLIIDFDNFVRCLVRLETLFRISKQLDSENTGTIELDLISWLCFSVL

T7 sequence (P98170 whole entry): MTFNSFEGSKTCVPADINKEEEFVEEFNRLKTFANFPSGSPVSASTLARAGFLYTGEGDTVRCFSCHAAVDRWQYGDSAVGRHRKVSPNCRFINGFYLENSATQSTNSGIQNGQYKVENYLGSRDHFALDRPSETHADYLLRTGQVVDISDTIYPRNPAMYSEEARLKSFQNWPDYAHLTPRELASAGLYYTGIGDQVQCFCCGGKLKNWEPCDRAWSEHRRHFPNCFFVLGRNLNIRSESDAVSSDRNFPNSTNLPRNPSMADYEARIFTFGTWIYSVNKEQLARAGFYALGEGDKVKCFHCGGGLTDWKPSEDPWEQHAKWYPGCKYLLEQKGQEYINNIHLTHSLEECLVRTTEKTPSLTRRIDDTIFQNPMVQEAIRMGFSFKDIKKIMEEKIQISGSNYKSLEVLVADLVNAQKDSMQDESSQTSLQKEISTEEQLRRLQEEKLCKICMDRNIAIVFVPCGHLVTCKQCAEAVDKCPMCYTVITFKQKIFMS
T4 sequence (P10635 whole entry): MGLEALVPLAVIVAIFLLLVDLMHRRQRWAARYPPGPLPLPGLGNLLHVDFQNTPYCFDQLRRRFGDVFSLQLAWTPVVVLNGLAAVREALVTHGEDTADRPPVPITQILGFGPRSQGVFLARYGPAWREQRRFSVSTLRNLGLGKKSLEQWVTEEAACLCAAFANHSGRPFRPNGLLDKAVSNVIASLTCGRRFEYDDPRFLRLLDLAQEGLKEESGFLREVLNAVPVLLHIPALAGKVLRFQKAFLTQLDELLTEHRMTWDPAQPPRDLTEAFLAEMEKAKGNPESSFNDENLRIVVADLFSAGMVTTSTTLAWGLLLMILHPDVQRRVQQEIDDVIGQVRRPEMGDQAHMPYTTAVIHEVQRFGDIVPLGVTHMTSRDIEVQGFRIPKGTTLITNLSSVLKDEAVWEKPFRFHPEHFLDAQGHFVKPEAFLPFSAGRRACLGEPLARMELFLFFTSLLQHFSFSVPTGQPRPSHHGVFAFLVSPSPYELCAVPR
T6 sequence (P41143 whole entry): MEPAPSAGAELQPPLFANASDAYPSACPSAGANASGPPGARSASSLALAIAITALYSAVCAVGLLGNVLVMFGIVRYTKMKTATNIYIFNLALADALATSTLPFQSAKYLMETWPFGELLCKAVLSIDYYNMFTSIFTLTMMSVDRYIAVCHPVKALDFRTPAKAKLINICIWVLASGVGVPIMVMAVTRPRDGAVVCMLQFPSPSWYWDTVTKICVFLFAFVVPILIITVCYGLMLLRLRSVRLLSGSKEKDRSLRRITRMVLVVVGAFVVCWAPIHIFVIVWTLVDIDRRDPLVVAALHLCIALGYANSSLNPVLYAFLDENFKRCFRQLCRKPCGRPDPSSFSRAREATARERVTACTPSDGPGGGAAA
T5 sequence (P41145 whole entry): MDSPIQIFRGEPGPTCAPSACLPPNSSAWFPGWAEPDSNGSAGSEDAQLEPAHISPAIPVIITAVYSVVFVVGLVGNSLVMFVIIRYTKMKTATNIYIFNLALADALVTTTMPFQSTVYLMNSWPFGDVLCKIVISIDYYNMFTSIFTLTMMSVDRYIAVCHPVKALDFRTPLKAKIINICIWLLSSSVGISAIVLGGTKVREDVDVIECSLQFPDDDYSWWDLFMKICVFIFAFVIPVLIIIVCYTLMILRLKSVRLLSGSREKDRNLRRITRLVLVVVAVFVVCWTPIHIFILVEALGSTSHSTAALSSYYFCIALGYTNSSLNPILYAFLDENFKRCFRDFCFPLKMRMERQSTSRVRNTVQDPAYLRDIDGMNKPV
Sequence of Mu-type opioid receptor (P35372 whole entry): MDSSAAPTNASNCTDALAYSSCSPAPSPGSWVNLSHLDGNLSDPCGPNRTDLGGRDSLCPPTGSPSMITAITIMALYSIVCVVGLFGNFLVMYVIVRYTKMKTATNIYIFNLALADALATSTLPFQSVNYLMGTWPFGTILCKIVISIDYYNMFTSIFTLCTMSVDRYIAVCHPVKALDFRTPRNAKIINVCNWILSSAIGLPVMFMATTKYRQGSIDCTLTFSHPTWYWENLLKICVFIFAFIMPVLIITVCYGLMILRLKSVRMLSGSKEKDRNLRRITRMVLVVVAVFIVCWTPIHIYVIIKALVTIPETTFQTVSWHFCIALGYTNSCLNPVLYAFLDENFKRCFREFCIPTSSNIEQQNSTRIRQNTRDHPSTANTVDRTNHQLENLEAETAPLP
Sequence of Beta-galactosidase (Q8VNN2 whole entry): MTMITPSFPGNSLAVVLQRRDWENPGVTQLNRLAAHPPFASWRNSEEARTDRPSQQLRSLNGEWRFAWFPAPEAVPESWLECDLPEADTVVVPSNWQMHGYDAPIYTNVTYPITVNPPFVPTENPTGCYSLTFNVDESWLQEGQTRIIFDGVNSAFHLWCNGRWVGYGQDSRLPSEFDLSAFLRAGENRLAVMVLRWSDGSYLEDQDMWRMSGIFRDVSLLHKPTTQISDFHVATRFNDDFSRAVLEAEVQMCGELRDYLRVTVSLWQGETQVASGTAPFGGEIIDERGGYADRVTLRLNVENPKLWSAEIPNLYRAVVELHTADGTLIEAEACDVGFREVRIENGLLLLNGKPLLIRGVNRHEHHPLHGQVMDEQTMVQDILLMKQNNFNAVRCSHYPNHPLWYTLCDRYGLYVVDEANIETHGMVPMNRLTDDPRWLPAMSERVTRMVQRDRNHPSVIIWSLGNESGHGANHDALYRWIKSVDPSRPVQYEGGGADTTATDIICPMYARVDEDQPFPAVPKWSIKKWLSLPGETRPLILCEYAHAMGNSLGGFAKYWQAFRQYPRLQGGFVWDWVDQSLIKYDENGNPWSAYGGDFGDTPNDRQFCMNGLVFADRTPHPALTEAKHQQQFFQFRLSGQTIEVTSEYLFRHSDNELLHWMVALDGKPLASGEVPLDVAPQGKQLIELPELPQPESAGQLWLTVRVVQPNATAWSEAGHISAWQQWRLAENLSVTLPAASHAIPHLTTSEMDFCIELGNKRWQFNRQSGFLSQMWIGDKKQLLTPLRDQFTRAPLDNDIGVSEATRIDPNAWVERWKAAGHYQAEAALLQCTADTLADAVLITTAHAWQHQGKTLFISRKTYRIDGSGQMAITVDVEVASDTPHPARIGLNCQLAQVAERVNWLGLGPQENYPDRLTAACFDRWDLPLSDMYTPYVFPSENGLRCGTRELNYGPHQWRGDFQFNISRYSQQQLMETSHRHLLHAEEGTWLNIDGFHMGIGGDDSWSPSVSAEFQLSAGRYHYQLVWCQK

Cc1ccccc1C(=O)NNC(=S)NC(=O)c1ccc(Cl)cc1Cl
EC50 [1]: 1.75 µM (active) | EC50 [2]: 1.33 µM (active) | EC50 [3]: > 160 µM (inactive)

CN(C)c1nc(C=C(C#N)C#N)c(Cl)n1-c1ccc(F)cc1
EC50 [4]: 4.24 µM (active) | AC50 [5]: 3.92 µM (active) | EC50 (BJ [6]): 4.83 µM (active) | EC50 (HEK293 [7]): > 59.6 µM (inactive) | EC50 [8]: 27.8 µM (active) | EC50 (BJ [9]): 5 µM (active) | EC50 (BJ [10]): 5.12 µM (inconclusive) | EC50 (HEK293 [11]): > 59.6 µM (inactive)

NCCCc1c(-c2ccccc2)nc(N)[nH]c1=O
AC50 (Cytochrome P450 2D6 [12]): inconclusive

COc1ccc(-c2csc(N3C(=N)SCC3=O)n2)cc1
IC50 [13]: > 32 µM | AC50 (Cytochrome P450 2D6 [14]): 11.2 µM (inconclusive) | EC50 (Beta-galactosidase): > 31.5 µM (inactive) | IC50 [15]: > 32 µM (inactive) | IC50 [16]: 12.8 µM (active) | EC50 [17]: > 32 µM (inactive) | EC50 (Mu-type opioid receptor): > 32 µM (inactive)

CC1=C([N+](=O)[O-])C(c2cccc(Br)c2)C2=C(O)c3ccccc3C2=N1 (centres undefined)
EC50 (HEK293 [7]): > 59.6 µM (inactive) | EC50 (HEK293 [11]): > 59.6 µM (inactive)

COc1ccc(/C=C(\NC(=O)c2ccccc2Cl)C(=O)NCCCC(=O)O)cc1
IC50 [18]: > 100 µM (not active) | IC50 [19]: > 100 µM (inactive) | IC50 [20]: > 50 µM (not active)
